PubChem BioAssay AID1645862 (Buhrlage Lab, Dana-Farber Cancer Institute and Novartis …, 2021)
Activity calls are given as the source filed them. No rule for the calls is given here.

Target: Ubiquitin carboxyl-terminal hydrolase 8 (Homo sapiens) (UniProt P40818)
Assay: Ubiquitin-specific protease 8 inhibitors, concentration-effect, biochemical, validation of initial actives (AID 1645862);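 also: potency reflects inhibition of USP8 cleavage of a ubiquitin rhodamine substrate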
Conditions: recombinant USP8 deubiquitinase activity assay

Sequence of Ubiquitin carboxyl-terminal hydrolase 8 (Homo sapiens) (P40818 whole entry, looked up): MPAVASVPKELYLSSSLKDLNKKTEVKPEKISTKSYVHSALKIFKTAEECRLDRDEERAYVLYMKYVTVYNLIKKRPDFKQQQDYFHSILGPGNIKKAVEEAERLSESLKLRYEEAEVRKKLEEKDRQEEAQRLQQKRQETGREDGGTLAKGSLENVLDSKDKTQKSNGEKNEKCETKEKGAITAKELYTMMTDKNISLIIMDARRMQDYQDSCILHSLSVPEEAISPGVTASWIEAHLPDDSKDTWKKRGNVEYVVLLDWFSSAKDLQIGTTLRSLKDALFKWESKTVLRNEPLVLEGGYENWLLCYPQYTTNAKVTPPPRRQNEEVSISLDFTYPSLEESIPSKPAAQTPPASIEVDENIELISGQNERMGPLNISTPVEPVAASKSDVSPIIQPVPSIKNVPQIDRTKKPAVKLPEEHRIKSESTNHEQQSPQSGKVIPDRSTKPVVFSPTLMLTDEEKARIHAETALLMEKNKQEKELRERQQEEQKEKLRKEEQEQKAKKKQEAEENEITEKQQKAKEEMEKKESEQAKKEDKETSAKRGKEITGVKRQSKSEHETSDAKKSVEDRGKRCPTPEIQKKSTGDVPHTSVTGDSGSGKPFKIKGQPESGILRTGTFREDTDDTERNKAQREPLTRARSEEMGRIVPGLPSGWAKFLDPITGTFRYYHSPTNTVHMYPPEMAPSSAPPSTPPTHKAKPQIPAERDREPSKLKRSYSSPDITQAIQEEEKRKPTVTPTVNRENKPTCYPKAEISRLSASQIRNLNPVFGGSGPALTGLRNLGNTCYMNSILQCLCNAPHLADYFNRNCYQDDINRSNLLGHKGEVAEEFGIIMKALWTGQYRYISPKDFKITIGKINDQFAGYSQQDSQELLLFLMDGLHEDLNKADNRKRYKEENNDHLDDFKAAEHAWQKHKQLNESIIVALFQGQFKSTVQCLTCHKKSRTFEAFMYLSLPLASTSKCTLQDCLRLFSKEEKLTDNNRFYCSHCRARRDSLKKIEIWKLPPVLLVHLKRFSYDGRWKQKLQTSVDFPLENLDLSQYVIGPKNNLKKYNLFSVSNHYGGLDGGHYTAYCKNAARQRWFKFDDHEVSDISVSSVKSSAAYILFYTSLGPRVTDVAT

Row | SMILES | IC50
1 | CCOc1ccc(CC(=O)Nc2ccc(-c3cn4cccnc4n3)cc2)cc1 | > 40 µM (inactive)
2 | Cc1cccc(NC(=O)CSc2nc3c(cc2C#N)C(=O)CCC3)c1 | > 40 µM (inactive)
3 | O=c1[nH]cccc1NS(=O)(=O)c1ccc(F)cc1 | > 40 µM (inactive)
4 | COc1ccccc1C(=O)N1CCC[C@H](Cn2nnc(-c3cccnc3)n2)C1 | > 40 µM (inactive)
5 | CCC(C)N1CNc2c(c(=O)[nH]c(=O)n2Cc2ccco2)C1 (configuration not stated) | > 40 µM (inactive)
6 | COc1ccccc1C(=O)Nc1ccc(Oc2ncnc3sc(-c4ccccc4)cc23)cc1 | > 40 µM (inactive)
7 | Cc1ccc(C(=O)O)cc1NC(=O)C(Sc1cccc(NC(=O)c2cccc(Cl)c2)c1)c1ccccc1 (configuration not stated) | > 40 µM (inactive)
8 | O=C(NC1CCCC1)c1ccc(-c2ccc(S(=O)(=O)NCc3ccccc3)cc2)cc1 | > 40 µM (inactive)
9 | CCc1ccccc1NC(=O)CN1C(=O)C2CCCC2=Nc2ccccc21 (configuration not stated) | > 40 µM (inactive)
10 | Cc1ccccc1NC(=O)Cc1csc2nc(-c3ccc(F)cc3)cn12 | > 40 µM (inactive)
11 | Cc1noc(-c2cc(=O)n(CC(=O)NCc3ccccc3F)c3ccccc23)n1 | > 40 µM (inactive)
12 | COc1cc(NC(=O)Cc2ccccc2)ccc1NC(=O)c1cc2ccccc2o1 | > 40 µM (inactive)
13 | Cc1occ2c1C(=O)c1c(O)ccc(O)c1C2 | 0.667 µM
14 | COc1cccc2cc(C(=O)Nc3nc(-c4ccncc4)cs3)oc12 | 19.9 µM
15 | Cc1ccc(C(=O)c2cn(CC(=O)Nc3ccccc3)c3ccc(C)cc3c2=O)cc1 | > 40 µM (inactive)
16 | O=S(=O)(Nc1ccc(Oc2ncnc3cc(Cl)ccc23)nc1)c1ccc(S(=O)(=O)c2ccccc2)s1 | > 40 µM (inactive)
17 | Cc1ccc(-c2nnc3ccc(SCC(=O)N4CCCc5ccccc54)nn23)cc1 | > 40 µM (inactive)
18 | COc1ccc(S(=O)(=O)N2CCc3ccccc32)cc1C(=O)Nc1ccc2c(c1)NC(=O)C(C)O2 (configuration not stated) | > 40 µM (inactive)
19 | O=c1oc2c3c(c(Cl)cc2c2c1CCCC2)OCN(Cc1ccccc1)C3 | > 40 µM (inactive)
20 | Nc1c(-c2nc(-c3ccccc3Cl)no2)nnn1-c1ccc(Cl)cc1 | 4.79 µM
21 | COc1ccc(-c2cc3nc([C@H](C)NC(=O)Cc4ccccc4C)nn3cn2)cc1 | > 40 µM (inactive)
22 | CCCc1nnc(C(=O)Nc2ccc(C(=O)NC(C)c3ccccc3)cc2)s1 (configuration not stated) | > 40 µM (inactive)
23 | CCOCc1ccc(C(=O)N[C@H](C)c2nc3cc(-c4ccc(OC)cc4)ncn3n2)cc1 | > 40 µM (inactive)

Row | SMILES | IC50
24 | Cc1ccc(NC(=O)Nc2ccc(C)n(CC(=O)Nc3ccc(C)c(C)c3)c2=O)cc1 | 39.2 µM
25 | COc1ccc(CNC(=O)C2CCCN(S(=O)(=O)Cc3ccc(Cl)cc3)C2)cc1 (configuration not stated) | > 40 µM (inactive)
26 | Oc1cccc2nc3c(O)cccc3nc12 | 8.85 µM
27 | COc1ccc(NC(=O)Cn2cc(C(=O)c3ccc(F)cc3)c(=O)c3cc(C)ccc32)cc1 | > 40 µM (inactive)
28 | Cc1ccc(C(=O)Nc2ccc3c(c2)Sc2ncccc2C(=O)N3C(C)C)cc1C | > 40 µM (inactive)
29 | O=S(=O)(c1ccccc1Cl)N1CCN(c2ccc3nnc(-c4ccco4)n3n2)CC1 | > 40 µM (inactive)
30 | COc1ccc(NC(=O)Cn2cc(C(=O)c3ccccc3)c(=O)c3cc(Cl)ccc32)cc1OC | > 40 µM (inactive)
31 | O=C(Nc1ccc2snnc2c1)Nc1ccc(F)cc1F | > 40 µM (inactive)
32 | O=C1CC(c2cc3c(cc2Br)OCO3)c2cc3c(cc2N1)OCCO3 (configuration not stated) | > 40 µM (inactive)
33 | Cc1ccc(-n2nc(C(=O)Nc3ccc(C)cn3)c3ncn(C)c(=O)c32)cc1 | > 40 µM (inactive)
34 | CCC(=O)N1c2ccccc2NC2=C(C(=O)CC(c3ccccc3OCc3ccccc3)C2)C1c1ccccc1 (configuration not stated) | > 40 µM (inactive)
35 | CCCC(O)CCCCCCCc1cc(O)cc(O)c1C(=O)OC(CCC)CCCCCCCc1cc(O)cc(O)c1 (configuration not stated) | > 40 µM (inactive)
36 | Cc1ccc(CNC(=O)c2nc(-c3ccc4c(c3)OCC(=O)N4C)no2)cc1 | > 40 µM (inactive)
37 | COc1ccc(-c2nc(-c3nnn(Cc4ccc(F)cc4)c3C)no2)c(OC)c1 | > 40 µM (inactive)
38 | Cc1ccc(NC(=O)Cn2cc(C(=O)c3ccccc3)c(=O)c3cc(C)ccc32)cc1 | 39.6 µM
39 | COc1ccc(Cn2nc(C)cc2NC(=O)c2cccc(F)c2)cc1OC | > 40 µM (inactive)
40 | CCc1cccc(NC(=O)Cc2nnc3ccc(-c4nc(C)no4)cn23)c1 | > 40 µM (inactive)
41 | Cc1ccc(-c2nc3c(c(SCC(=O)c4ccccc4)n2)COC(C)(C)C3)cc1 | > 40 µM (inactive)
42 | O=C(Nc1ccccc1)[C@@H]1[C@@H]2C(=O)N(c3ccc([N+](=O)[O-])cc3)C(=O)[C@@H]2[C@H]2c3ccccc3C=CN12 | 34 µM
43 | Cc1ccc(CNCc2cc3c(-c4ccc(F)cc4)nn(-c4ccccc4)c3[nH]c2=O)cc1 | > 40 µM (inactive)
44 | O=C(c1ccco1)N1CCCC1c1nc(-c2ccccc2)n[nH]1 (configuration not stated) | > 40 µM (inactive)
45 | CSc1nc2ncn(CC(=O)Nc3ccc(Br)cc3)c(=O)c2s1 | > 40 µM (inactive)
46 | Cc1ccc(NCc2cc3c(-c4cccc(F)c4)nn(-c4ccccc4)c3[nH]c2=O)cc1C | > 40 µM (inactive)

Row | SMILES | IC50
47 | Cc1ccc(CNC(=O)CCCn2c(=O)c3sccc3n(CC(=O)OCc3ccccc3)c2=O)cc1 | > 40 µM (inactive)
48 | CSc1cccc(NC(=O)c2cc(-c3cccnc3)n[nH]2)c1 | > 40 µM (inactive)
49 | O=C(Nc1cccc(Br)c1)c1cc(-c2cccnc2)n[nH]1 | 33.6 µM
50 | Cc1ccc2[nH]c(=O)c(-c3nc4ccccn4c3NCc3ccccc3)cc2c1 | > 40 µM (inactive)
51 | O=C(CSc1nc(=O)n(Cc2ccncc2)c2c1CCC2)NCCc1ccccc1 | > 40 µM (inactive)
52 | O=C(c1ccncc1)N1CCN(CC2CC=CCC2)CC1 (configuration not stated) | > 40 µM (inactive)
53 | O=C(c1cccnc1)N1CCCC(Cc2cc(-c3ncc[nH]3)ncn2)C1 (configuration not stated) | > 40 µM (inactive)
54 | O=C(Nc1ccc(F)cc1)Nc1ccccc1OCc1cc(=O)n2ccccc2n1 | > 40 µM (inactive)
55 | Cn1c(CCNC(=O)c2[nH]nc3c2CCc2ccccc2-3)nc2ccccc21 | > 40 µM (inactive)
56 | COc1ccccc1CNC(=O)C1c2ccccc2C(=O)N1Cc1ccccc1C (configuration not stated) | > 40 µM (inactive)
57 | Cc1ccccc1-c1nnc2sc(COc3ccc(Cl)cc3)nn12 | > 40 µM (inactive)
58 | NS(=O)(=O)c1ccc(CNS(=O)(=O)/C=C/c2ccccc2)cc1 | > 40 µM (inactive)
59 | O=C(c1[nH]nc2c1COc1ccccc1-2)N1CCN(c2ccccn2)CC1 | > 40 µM (inactive)
60 | CCc1ccc(NC(=O)Cc2nnc3cc(-c4nc(C)no4)ccn23)cc1 | 19.6 µM
61 | O=C(Cn1cc(C(=O)C(F)(F)F)c2cc(Br)ccc21)N1CCc2ccccc21 | > 40 µM (inactive)
62 | O=C(Nc1nc(-c2ccccc2)ns1)c1ccc2ncsc2c1 | > 40 µM (inactive)
63 | COC(=O)c1ccc(Cn2nnc3c(=O)[nH]c(C4CCCN(S(=O)(=O)c5ccc(C)cc5)C4)nc32)cc1 (configuration not stated) | > 40 µM (inactive)
64 | O=C(Nc1ccccc1-c1nc(-c2ccccn2)no1)c1cc(Cl)ccc1Cl | > 40 µM (inactive)
65 | N=C1/C(=C/c2cn(Cc3ccc(F)cc3)c3ccccc23)C(=O)N=C2SC(Cc3ccccc3)=NN12 | > 40 µM (inactive)
66 | CC(NC(=O)c1ccccc1)c1nc2ccccc2n1CC(=O)Nc1ccc(F)cc1 (configuration not stated) | > 40 µM (inactive)
67 | COc1ccc(-c2nc(SCC(=O)Oc3c(C)cccc3C)n3[nH]c(=O)cc3n2)cc1 | 18 µM
68 | COc1ccc(C(=O)NC(Cc2ccccc2)c2nc3ccccc3[nH]2)c(OC)c1 (configuration not stated) | 9.44 µM
69 | CCCn1c(=O)c(-c2ccc(C(=O)NCc3ccc(OC)cc3)cc2)nc2cccnc21 | > 40 µM (inactive)

Row | SMILES | IC50
70 | Cc1ccc(-n2nnnc2-c2cnc3cc(Cl)ccc3c2N)cc1 | > 40 µM (inactive)
71 | COc1ccc(Sc2nc3ccccc3n3cnnc23)cc1 | 32.7 µM
72 | CCc1ccc(-n2c(C)cc(/C=C3\C(=N)N4N=CSC4=NC3=O)c2C)cc1 | > 40 µM (inactive)
73 | CC(C)NC(=O)Cn1ccn2nc(-c3ccc(Cl)cc3)cc2c1=O | > 40 µM (inactive)
74 | O=C1CC(C(=O)Nc2ccc3c(c2)OCO3)n2nc(SCc3ccccc3)nc2N1 (configuration not stated) | > 40 µM (inactive)
75 | O=c1c2ccccc2nc(CSc2cccc(Cl)c2Cl)n1-c1ccccc1 | > 40 µM (inactive)
76 | Cn1cc(NC(=O)Nc2cccc3ccccc23)c2ccccc21 | > 40 µM (inactive)
77 | Cc1noc(C)c1COc1cccc(C(=O)Nc2cc(Cl)ccc2-n2cncn2)c1 | > 40 µM (inactive)
78 | Cc1nc2c(c(C)c1CCC(=O)Nc1ccccc1F)c(=O)n(C)c(=O)n2C | > 40 µM (inactive)
79 | CC(=O)c1cc(-c2ccc(F)cc2)n(CC(=O)Nc2cccc(C)c2C)c1C | > 40 µM (inactive)
80 | CCOC(=O)N1CCN(C(=O)c2ccc(NCc3ccc(F)cc3)c(S(=O)(=O)Nc3cccc(C(F)(F)F)c3)c2)CC1 | > 40 µM (inactive)
81 | Cc1ccc(CNC(=O)Cn2c(=O)n(CCCC(=O)NCc3ccc(F)cc3)c(=O)c3ccccc32)cc1 | > 40 µM (inactive)
82 | CC(=O)c1ccc(N2CCN(S(=O)(=O)c3cc4c(cc3C)NC(=O)CO4)CC2)cc1 | > 40 µM (inactive)
83 | CCOC(=O)C1CCN(Cc2cc(=O)oc3cc(O)c(O)cc23)CC1 | 1.29 µM
84 | COc1ccc(N/C=C/c2onc(C)c2[N+](=O)[O-])c(OC)c1 | > 40 µM (inactive)
85 | CC(=O)Nc1cccc(-c2cnc3sc(NC4CCCCC4)nn23)c1 | > 40 µM (inactive)
86 | COc1ccc(-n2ccn3c(CCC(=O)Nc4cccc(C)c4)nnc3c2=O)cc1 | > 40 µM (inactive)
87 | Cc1cc(O)c(=O)cc2c1C[C@H]1CC(C)(C)/C=C/C[C@@]3(C)Oc4cc(=O)c(O)cc(C)c4C[C@@H]3C[C@H](O)[C@]1(C)O2 | > 40 µM (inactive)
88 | COc1ccc(-c2cc3nc([C@H](C)NC(=O)CC4CCCC4)nn3cn2)cc1 | > 40 µM (inactive)
89 | O=C1CC(O)C(O)c2cccc(O)c21 (configuration not stated) | > 40 µM (inactive)
90 | CC1=C(C)C(c2c(-c3ccc(C)cc3)[nH]c3ccccc23)N(C(C)(C)C)C1=O (configuration not stated) | > 40 µM (inactive)
91 | Cc1cc(C)c(NC(=O)Cn2c(=O)n(CCC(=O)NCc3ccc4c(c3)OCO4)c(=O)c3sccc32)c(C)c1 | > 40 µM (inactive)
92 | COc1ccc(-c2cc3c(=O)n(CC(=O)NCc4ccccc4)ncn3n2)cc1 | > 40 µM (inactive)
